# Measurements as given in ChEMBL document CHEMBL5625277, “Systematical mutational analysis of teriparatide on anti-osteoporosis activity by alanine scanning” (Bioorg Med Chem Lett, 2024).
# Assay: Cytotoxicity in pre-osteoblasts (unknown origin) assessed as cell death upto 5 uM by CCK8 assay
# Format: toxicity, cell-based
# Details: pre-osteoblast
row,Structure (SMILES),Activity
1,CC[C@H](C)[C@H](NC(=O)[C@H](CCC(=O)O)NC(=O)[C@H](CO)NC(=O)[C@@H](NC(=O)[C@H](CO)NC(C)=O)C(C)C)C(=O)N[C@@H](CCC(N)=O)C(=O)N[C@@H](CC(C)C)C(=O)N[C@@H](CCSC)C(=O)N[C@@H](Cc1cnc[nH]1)C(=O)N[C@@H](CC(N)=O)C(=O)N[C@@H](CC(C)C)C(=O)NCC(=O)N[C@@H](CCCCN)C(=O)N[C@@H](Cc1cnc[nH]1)C(=O)N[C@@H](CC(C)C)C(=O)N[C@@H](CC(N)=O)C(=O)N[C@@H](CO)C(=O)N[C@@H](CCSC)C(=O)N[C@@H](CCC(=O)O)C(=O)N[C@@H](CCCNC(=N)N)C(=O)N[C@H](C(=O)N[C@@H](CCC(=O)O)C(=O)N[C@@H](Cc1c[nH]c2ccccc12)C(=O)N[C@@H](CC(C)C)C(=O)N[C@@H](C)C(=O)N[C@@H](CCCCN)C(=O)N[C@@H](CCCCN)C(=O)N[C@@H](CC(C)C)C(=O)N[C@@H](CCC(N)=O)C(=O)N[C@@H](CC(=O)O)C(=O)N[C@H](C(=O)N[C@@H](Cc1cnc[nH]1)C(=O)N[C@@H](CC(N)=O)C(=O)N[C@@H](Cc1ccccc1)C(N)=O)C(C)C)C(C)C,Non-Toxic
2,CC[C@H](C)[C@H](NC(=O)[C@H](CCC(=O)O)NC(=O)[C@H](CO)NC(=O)[C@@H](NC(=O)[C@H](CO)NC(C)=O)C(C)C)C(=O)N[C@@H](CCC(N)=O)C(=O)N[C@@H](CC(C)C)C(=O)N[C@@H](CCSC)C(=O)N[C@@H](Cc1cnc[nH]1)C(=O)N[C@@H](C)C(=O)N[C@@H](CC(C)C)C(=O)NCC(=O)N[C@@H](CCCCN)C(=O)N[C@@H](Cc1cnc[nH]1)C(=O)N[C@@H](CC(C)C)C(=O)N[C@@H](CC(N)=O)C(=O)N[C@@H](CO)C(=O)N[C@@H](CCSC)C(=O)N[C@@H](CCC(=O)O)C(=O)N[C@@H](CCCNC(=N)N)C(=O)N[C@H](C(=O)N[C@@H](CCC(=O)O)C(=O)N[C@@H](Cc1c[nH]c2ccccc12)C(=O)N[C@@H](CC(C)C)C(=O)N[C@@H](CCCNC(=N)N)C(=O)N[C@@H](CCCCN)C(=O)N[C@@H](CCCCN)C(=O)N[C@@H](CC(C)C)C(=O)N[C@@H](CCC(N)=O)C(=O)N[C@@H](CC(=O)O)C(=O)N[C@H](C(=O)N[C@@H](Cc1cnc[nH]1)C(=O)N[C@@H](CC(N)=O)C(=O)N[C@@H](Cc1ccccc1)C(N)=O)C(C)C)C(C)C,Non-Toxic
3,CC[C@H](C)[C@H](NC(=O)[C@H](CCC(=O)O)NC(=O)[C@H](CO)NC(=O)[C@@H](NC(=O)[C@H](CO)NC(C)=O)C(C)C)C(=O)N[C@@H](CCC(N)=O)C(=O)N[C@@H](CC(C)C)C(=O)N[C@@H](CCSC)C(=O)N[C@@H](Cc1cnc[nH]1)C(=O)N[C@@H](CC(N)=O)C(=O)N[C@@H](CC(C)C)C(=O)NCC(=O)N[C@@H](CCCCN)C(=O)N[C@@H](Cc1cnc[nH]1)C(=O)N[C@@H](CC(C)C)C(=O)N[C@@H](CC(N)=O)C(=O)N[C@@H](CO)C(=O)N[C@@H](C)C(=O)N[C@@H](CCC(=O)O)C(=O)N[C@@H](CCCNC(=N)N)C(=O)N[C@H](C(=O)N[C@@H](CCC(=O)O)C(=O)N[C@@H](Cc1c[nH]c2ccccc12)C(=O)N[C@@H](CC(C)C)C(=O)N[C@@H](CCCNC(=N)N)C(=O)N[C@@H](CCCCN)C(=O)N[C@@H](CCCCN)C(=O)N[C@@H](CC(C)C)C(=O)N[C@@H](CCC(N)=O)C(=O)N[C@@H](CC(=O)O)C(=O)N[C@H](C(=O)N[C@@H](Cc1cnc[nH]1)C(=O)N[C@@H](CC(N)=O)C(=O)N[C@@H](Cc1ccccc1)C(N)=O)C(C)C)C(C)C,Non-Toxic
4,CC[C@H](C)[C@H](NC(=O)[C@H](CCC(=O)O)NC(=O)[C@H](CO)NC(=O)[C@@H](NC(=O)[C@H](CO)NC(C)=O)C(C)C)C(=O)N[C@@H](CCC(N)=O)C(=O)N[C@@H](CC(C)C)C(=O)N[C@@H](CCSC)C(=O)N[C@@H](Cc1cnc[nH]1)C(=O)N[C@@H](CC(N)=O)C(=O)N[C@@H](CC(C)C)C(=O)NCC(=O)N[C@@H](CCCCN)C(=O)N[C@@H](Cc1cnc[nH]1)C(=O)N[C@@H](CC(C)C)C(=O)N[C@@H](C)C(=O)N[C@@H](CO)C(=O)N[C@@H](CCSC)C(=O)N[C@@H](CCC(=O)O)C(=O)N[C@@H](CCCNC(=N)N)C(=O)N[C@H](C(=O)N[C@@H](CCC(=O)O)C(=O)N[C@@H](Cc1c[nH]c2ccccc12)C(=O)N[C@@H](CC(C)C)C(=O)N[C@@H](CCCNC(=N)N)C(=O)N[C@@H](CCCCN)C(=O)N[C@@H](CCCCN)C(=O)N[C@@H](CC(C)C)C(=O)N[C@@H](CCC(N)=O)C(=O)N[C@@H](CC(=O)O)C(=O)N[C@H](C(=O)N[C@@H](Cc1cnc[nH]1)C(=O)N[C@@H](CC(N)=O)C(=O)N[C@@H](Cc1ccccc1)C(N)=O)C(C)C)C(C)C,Non-Toxic
5,CC[C@H](C)[C@H](NC(=O)[C@H](CCC(=O)O)NC(=O)[C@H](CO)NC(=O)[C@@H](NC(=O)[C@H](CO)NC(C)=O)C(C)C)C(=O)N[C@@H](CCC(N)=O)C(=O)N[C@@H](CC(C)C)C(=O)N[C@@H](CCSC)C(=O)N[C@@H](Cc1cnc[nH]1)C(=O)N[C@@H](CC(N)=O)C(=O)N[C@@H](CC(C)C)C(=O)NCC(=O)N[C@@H](CCCCN)C(=O)N[C@@H](Cc1cnc[nH]1)C(=O)N[C@@H](CC(C)C)C(=O)N[C@@H](CC(N)=O)C(=O)N[C@@H](CO)C(=O)N[C@@H](CCSC)C(=O)N[C@@H](CCC(=O)O)C(=O)N[C@@H](CCCNC(=N)N)C(=O)N[C@H](C(=O)N[C@@H](CCC(=O)O)C(=O)N[C@@H](Cc1c[nH]c2ccccc12)C(=O)N[C@@H](CC(C)C)C(=O)N[C@@H](CCCNC(=N)N)C(=O)N[C@@H](C)C(=O)N[C@@H](CCCCN)C(=O)N[C@@H](CC(C)C)C(=O)N[C@@H](CCC(N)=O)C(=O)N[C@@H](CC(=O)O)C(=O)N[C@H](C(=O)N[C@@H](Cc1cnc[nH]1)C(=O)N[C@@H](CC(N)=O)C(=O)N[C@@H](Cc1ccccc1)C(N)=O)C(C)C)C(C)C,Non-Toxic
6,CC[C@H](C)[C@H](NC(=O)[C@H](CCC(=O)O)NC(=O)[C@H](CO)NC(=O)[C@@H](NC(=O)[C@H](CO)NC(C)=O)C(C)C)C(=O)N[C@@H](CCC(N)=O)C(=O)N[C@@H](CC(C)C)C(=O)N[C@@H](CCSC)C(=O)N[C@@H](Cc1cnc[nH]1)C(=O)N[C@@H](CC(N)=O)C(=O)N[C@@H](CC(C)C)C(=O)NCC(=O)N[C@@H](CCCCN)C(=O)N[C@@H](Cc1cnc[nH]1)C(=O)N[C@@H](CC(C)C)C(=O)N[C@@H](CC(N)=O)C(=O)N[C@@H](CO)C(=O)N[C@@H](CCSC)C(=O)N[C@@H](CCC(=O)O)C(=O)N[C@@H](CCCNC(=N)N)C(=O)N[C@H](C(=O)N[C@@H](CCC(=O)O)C(=O)N[C@@H](Cc1c[nH]c2ccccc12)C(=O)N[C@@H](CC(C)C)C(=O)N[C@@H](CCCNC(=N)N)C(=O)N[C@@H](CCCCN)C(=O)N[C@@H](CCCCN)C(=O)N[C@@H](CC(C)C)C(=O)N[C@@H](CCC(N)=O)C(=O)N[C@@H](CC(=O)O)C(=O)N[C@@H](C)C(=O)N[C@@H](Cc1cnc[nH]1)C(=O)N[C@@H](CC(N)=O)C(=O)N[C@@H](Cc1ccccc1)C(N)=O)C(C)C,Non-Toxic
7,CSCC[C@H](NC(=O)[C@H](CC(C)C)NC(=O)[C@H](CCC(N)=O)NC(=O)[C@H](C)NC(=O)[C@H](CCC(=O)O)NC(=O)[C@H](CO)NC(=O)[C@@H](NC(=O)[C@H](CO)NC(C)=O)C(C)C)C(=O)N[C@@H](Cc1cnc[nH]1)C(=O)N[C@@H](CC(N)=O)C(=O)N[C@@H](CC(C)C)C(=O)NCC(=O)N[C@@H](CCCCN)C(=O)N[C@@H](Cc1cnc[nH]1)C(=O)N[C@@H](CC(C)C)C(=O)N[C@@H](CC(N)=O)C(=O)N[C@@H](CO)C(=O)N[C@@H](CCSC)C(=O)N[C@@H](CCC(=O)O)C(=O)N[C@@H](CCCNC(=N)N)C(=O)N[C@H](C(=O)N[C@@H](CCC(=O)O)C(=O)N[C@@H](Cc1c[nH]c2ccccc12)C(=O)N[C@@H](CC(C)C)C(=O)N[C@@H](CCCNC(=N)N)C(=O)N[C@@H](CCCCN)C(=O)N[C@@H](CCCCN)C(=O)N[C@@H](CC(C)C)C(=O)N[C@@H](CCC(N)=O)C(=O)N[C@@H](CC(=O)O)C(=O)N[C@H](C(=O)N[C@@H](Cc1cnc[nH]1)C(=O)N[C@@H](CC(N)=O)C(=O)N[C@@H](Cc1ccccc1)C(N)=O)C(C)C)C(C)C,Non-Toxic
8,CC[C@H](C)[C@H](NC(=O)[C@H](CCC(=O)O)NC(=O)[C@H](CO)NC(=O)[C@@H](NC(=O)[C@H](CO)NC(C)=O)C(C)C)C(=O)N[C@@H](CCC(N)=O)C(=O)N[C@@H](CC(C)C)C(=O)N[C@@H](CCSC)C(=O)N[C@@H](Cc1cnc[nH]1)C(=O)N[C@@H](CC(N)=O)C(=O)N[C@@H](CC(C)C)C(=O)NCC(=O)N[C@@H](CCCCN)C(=O)N[C@@H](Cc1cnc[nH]1)C(=O)N[C@@H](CC(C)C)C(=O)N[C@@H](CC(N)=O)C(=O)N[C@@H](CO)C(=O)N[C@@H](CCSC)C(=O)N[C@@H](CCC(=O)O)C(=O)N[C@@H](CCCNC(=N)N)C(=O)N[C@H](C(=O)N[C@@H](CCC(=O)O)C(=O)N[C@@H](Cc1c[nH]c2ccccc12)C(=O)N[C@@H](C)C(=O)N[C@@H](CCCNC(=N)N)C(=O)N[C@@H](CCCCN)C(=O)N[C@@H](CCCCN)C(=O)N[C@@H](CC(C)C)C(=O)N[C@@H](CCC(N)=O)C(=O)N[C@@H](CC(=O)O)C(=O)N[C@H](C(=O)N[C@@H](Cc1cnc[nH]1)C(=O)N[C@@H](CC(N)=O)C(=O)N[C@@H](Cc1ccccc1)C(N)=O)C(C)C)C(C)C,Non-Toxic
9,CC[C@H](C)[C@H](NC(=O)[C@H](CCC(=O)O)NC(=O)[C@H](CO)NC(=O)[C@@H](NC(=O)[C@H](CO)NC(C)=O)C(C)C)C(=O)N[C@@H](CCC(N)=O)C(=O)N[C@@H](C)C(=O)N[C@@H](CCSC)C(=O)N[C@@H](Cc1cnc[nH]1)C(=O)N[C@@H](CC(N)=O)C(=O)N[C@@H](CC(C)C)C(=O)NCC(=O)N[C@@H](CCCCN)C(=O)N[C@@H](Cc1cnc[nH]1)C(=O)N[C@@H](CC(C)C)C(=O)N[C@@H](CC(N)=O)C(=O)N[C@@H](CO)C(=O)N[C@@H](CCSC)C(=O)N[C@@H](CCC(=O)O)C(=O)N[C@@H](CCCNC(=N)N)C(=O)N[C@H](C(=O)N[C@@H](CCC(=O)O)C(=O)N[C@@H](Cc1c[nH]c2ccccc12)C(=O)N[C@@H](CC(C)C)C(=O)N[C@@H](CCCNC(=N)N)C(=O)N[C@@H](CCCCN)C(=O)N[C@@H](CCCCN)C(=O)N[C@@H](CC(C)C)C(=O)N[C@@H](CCC(N)=O)C(=O)N[C@@H](CC(=O)O)C(=O)N[C@H](C(=O)N[C@@H](Cc1cnc[nH]1)C(=O)N[C@@H](CC(N)=O)C(=O)N[C@@H](Cc1ccccc1)C(N)=O)C(C)C)C(C)C,Non-Toxic
